# Test results: patent publication US10556890B2, “Heteroaryl compounds and methods of use thereof” (Sunovion Pharmaceuticals Inc., priority 2012, dated 2020)
# Experiments:
# C57Bl/6J mice = assay: Pre-pulse Inhibition (PPI) of startle in mice; assay type: in vivo; set-up: key: −: No change in PPI; +: Significant increase in PPI at one pre-pulse intensity (P value < 0.05); ++: Significant increase in PPI at two pre-pulse intensities (P value < 0.05); +++: Significant increase in PPI at three pre-pulse intensities (P value < 0.05); settings: 30 min prior to PPI test, vs. vehicle
# Description: (§1) Anti-psychotic like activity of the compounds was evaluated […] using the PCP hyperactivity (in rats) and Pre-Pulse Inhibition (PPI; in mice) models of schizophrenia.
# Animals—PPI: Male C57Bl/6J mice from Jackson Laboratories (Bar Harbor, Me.) were used in these studies. Upon receipt, mice were assigned unique identification numbers (tail marked) and were group housed with 4 mice per cage in OptiMICE ventilated cages. All animals remained housed in groups of four during the remainder of the study. All mice were acclimated to the colony room for at least one week prior to testing. During the period of acclimation, mice were examined on a regular basis, handled, and weighed to assure adequate health and suitability. Animals were maintained on a 12/12 light/dark cycle. The room temperature was maintained between 20 and 23° C. with a relative humidity maintained between 30% and 70%. Chow and water were provided ad libitum for the duration of the study. In each test, animals were randomly assigned across treatment groups.
# The acoustic startle is an unconditioned reflex response to an external auditory stimulus. Prepulse inhibition of startle (PPI) refers to the reduction in the startle response caused by the presentation of a low-intensity auditory stimulus prior to the startle stimulus. The PPI paradigm is used for the study of schizophrenia and antipsychotic action due to the similarities between the results from human and rodent studies. PPI has been used as a tool for the assessment of deficiencies in sensory-motor gating observed in schizophrenia and to screen for potential antipsychotic drugs. Various psychotomimetic drugs such as PCP can disrupt PPI. In mice, antipsychotic drugs such as clozapine can reverse the disruption of PPI induced by PCP.
# Mice were placed in the PPI chambers (Med Associates) for a 5 min session of white noise (70 dB) habituation. After the habituation period the test session was initiated. The session started with a habituation block of 6 presentations of the startle stimulus alone, followed by 10 PPI blocks, each of which consisted of 6 different types of trials. Trial types were: ‘null’ (no stimuli), ‘startle’ (120 dB), ‘startle plus prepulse’ (4, 8 and 12 dB over background noise, i.e., 74, 78 or 82 dB) and ‘prepulse’ (82 dB). Trial types were presented in a random order within each block. Each trial started with a 50 ms stimulus-free period during which baseline movements were recorded. This was followed by a subsequent 20 ms period during which the prepulse stimulus was presented and responses to the prepulse measured. After a further 100 ms period, the startle stimulus was presented for 40 ms and responses recorded for 100 ms from startle onset. Responses were sampled every ms. The inter-trial interval was variable with an average of 15 s (range from 10 to 20 s). In ‘startle’ trials the basic auditory startle response was measured. The basic startle response was calculated as the mean startle response of all ‘startle’ trials (i.e., excluding the first habituation block). In ‘startle plus prepulse’ trials the degree of inhibition of the normal startle was calculated and expressed as a percentage of the basic startle response.
# Mice were treated with vehicle, haloperidol (1 mg/kg; i.p) or test compound 30 min prior to PPI test. The PPI enclosures were cleaned following each test.
# Sprague Dawley rats = assay: PCP-induced hyperactivity in rats; assay type: in vivo; set-up: key: −: No inhibition of PCP hyperactivity; +: Significant inhibition of PCP hyperactivity (P value < 0.05); settings: vs. vehicle + PCP
# Description: as §1
# Animals: PCP Hyperactivity: Male Sprague Dawley rats from Harlan (Indianapolis, Ind.) were used in these studies. Upon receipt, rats were assigned unique identification numbers and were group housed with 3 rats per cage in polycarbonate cages with micro-isolator filter tops. All rats were examined, handled, and weighed prior to initiation of the study to assure adequate health and suitability. The rats were maintained at 12/12 light/dark cycle with lights on at 7:00 am EST. The room temperature was maintained between 20 and 23° C. with a relative humidity maintained around 50%. Chow and water were provided ad libitum for the duration of the study. For each test, animals were randomly assigned across treatment groups.
# The test chambers were Plexiglas rectangular chambers (24×45 cm) that fit inside two steel frames (9.5×18 inches) and were fitted with two-dimensional 4×8 beam grids to monitor horizontal and vertical locomotor activity (Hamilton Kinder, San Diego, Calif.). The analysis was configured to divide the open field of the chamber into a center and a periphery zone. Distance traveled was measured from horizontal beam breaks as the rat traveled whereas rearing activity was measured from vertical beam breaks.
# Rats were administered with vehicle, test compound, or risperidone (0.5-1 mg/kg; i.p) and placed in the test chambers for 30 min measurement of baseline activity. Rats were then injected with either water or PCP (2.5 mg/kg; s.c) and placed back in the test chambers for a 60-minute session. At the end of each test session the chambers were thoroughly cleaned.
# [1] = 3 mg/kg Compound + PCP (2.5 mg/kg s.c.)
# [2] = 10 mg/kg Compound + PCP (2.5 mg/kg s.c.)
# [3] = 30 mg/kg Compound + PCP (2.5 mg/kg s.c.)
SMILES,Effect on Pre-pulse Inhibition (PPI) (C57Bl/6J mice; 3 mg/kg),Effect on Pre-pulse Inhibition (PPI) (C57Bl/6J mice; 10 mg/kg),Effect on Pre-pulse Inhibition (PPI) (C57Bl/6J mice; 30 mg/kg),"Total Distance Traveled (cm), PCP-induced hyperactivity (Sprague Dawley rats; [1])","Total Distance Traveled (cm), PCP-induced hyperactivity (Sprague Dawley rats; [2])","Total Distance Traveled (cm), PCP-induced hyperactivity (Sprague Dawley rats; [3])","Total Distance Traveled (cm), PCP-induced hyperactivity (Sprague Dawley rats; 100 mg/kg Compound + PCP (2.5 mg/kg s.c.))"
Cc1sc2ccccc2c1C1C=CN=CN1 (stereo not drawn) [Compound 3],+,+,+++,−,+,+,
Cc1cc(C2C=CN=CN2)cs1.Cl (stereo not drawn) [Compound 21],−,−,−,,−,−,−
Fc1ccc2c(c1)N=CNC2c1c(F)sc2ccccc12 (stereo not drawn) [Compound 239],−,−,+++,+ (increase),+ (increase),+ (increase),
Cl.Fc1sc2ccccc2c1C1C=CN=CN1 (stereo not drawn) [Compound 15],−,+,++,−,−,−,
Cc1c(C2C=CN=CN2)sc2ccccc12.Cl (stereo not drawn) [Compound 20],−,−,−,+,−,+,
